Some test systems named below: MOLT-4 leukemia; T-47D breast; MALME-3M melanoma; SF-295 CNS; RPMI-8226 leukemia; A498 renal; SF-539 CNS; PC-3 prostate; SNB-19 CNS; SK-MEL-28 melanoma.
Common to all, as to assay: inhibition of tumour cell growth, NCI panel, 48 h

For seven compounds, GI50 and TGI results are on record in PubChem BioAssay (NCI).

Several values for one entry are separate records, joined by “and”; a condition that tells them apart may be missing. Equal entries are not always repeated.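 Grown in 96-well plates, cells were treated for 48 hours with each compound at five concentrations. Insufficient inhibition: endpoint recorded as highest concentration tested. The concentration for 50% growth inhibition is given as GI50. TGI: concentration producing complete growth inhibition.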

Turning to `CSc1ccc(C2=NN(C(=O)c3ccc(F)cc3)C(c3ccc(F)cc3)C2)cc1` (configuration not stated), the GI50 in the test with MOLT-4 leukemia is 12.3 µM; in the test with T-47D breast, 12.2 µM; with MALME-3M melanoma, 12.1 µM; in the test with SF-295 CNS, 17.9 µM; in the test on RPMI-8226 leukemia it was 1.68 µM; in the test with A498 renal, 19.6 µM. For the same compound, the GI50 is 19.4 µM with SF-539 CNS, 6.43 µM in the test on PC-3 prostate, 14.3 µM in the test on SNB-19 CNS and 18.3 µM with SK-MEL-28 melanoma. For the same compound, the TGI with MOLT-4 leukemia is 38.2 µM; in the test with T-47D breast, 31.2 µM; with MALME-3M melanoma, 26 µM; in the test with SF-295 CNS, 33.7 µM; in the test with RPMI-8226 leukemia it was 4.2 µM; in the test on A498 renal, 34.9 µM. Also, the TGI amounted to 38.1 µM in the test on SF-539 CNS, 22.2 µM with PC-3 prostate, 27.5 µM in the test with SNB-19 CNS and 32.6 µM with SK-MEL-28 melanoma.
With `O=Cc1ccc(-c2cc(C=O)c(-c3cccs3)[nH]2)s1`, the GI50 was 81 µM in the test with MOLT-4 leukemia; 18.2 µM with T-47D breast; over 100 µM with MALME-3M melanoma; 36.9 µM in the test with SF-295 CNS; 79.1 µM with RPMI-8226 leukemia; over 100 µM in the test with PC-3 prostate. The GI50 in the test on SNB-19 CNS and in the test with SK-MEL-28 melanoma was over 100 µM each time. Moreover, the TGI in the test with MOLT-4 leukemia is 75 µM and > 100 µM; in the test on T-47D breast, 49.6 µM and > 100 µM; in the test with MALME-3M melanoma it was 75 µM and > 100 µM; with SF-295 CNS, 75 µM and > 100 µM; with RPMI-8226 leukemia it was 75 µM and > 100 µM; in the test with A498 renal, 5.73 µM and 4.49 µM. Also, the TGI in the test on SF-539 CNS was 75 µM; in the test with PC-3 prostate, 75 µM and > 100 µM; in the test on SNB-19 CNS, 75 µM and > 100 µM; with SK-MEL-28 melanoma, 75 µM and > 100 µM.
Take `COc1cc(OC)cc(C2CC(=O)Nc3c2c(C)nn3-c2nc3ccccc3[nH]2)c1` (configuration not stated): the GI50 with MOLT-4 leukemia was 0.0728 µM; with T-47D breast, 3.5 µM; in the test on MALME-3M melanoma, 3.66 µM; in the test on SF-295 CNS, 1.58 µM; in the test on RPMI-8226 leukemia, 2.64 µM; in the test on A498 renal, 2.11 µM. The GI50 is 2.96 µM in the test on SF-539 CNS, 3.09 µM in the test with PC-3 prostate, 4.13 µM in the test with SNB-19 CNS and 3.64 µM in the test with SK-MEL-28 melanoma. Besides, the TGI was 0.434 µM in the test on MOLT-4 leukemia; over 100 µM in the test with T-47D breast; over 100 µM in the test with MALME-3M melanoma; 3.85 µM in the test with SF-295 CNS; 6.29 µM in the test on RPMI-8226 leukemia; 4.69 µM in the test on A498 renal. Moreover, the TGI in the test with SF-539 CNS is 9.43 µM; in the test on PC-3 prostate it was 41.7 µM; in the test on SNB-19 CNS, over 100 µM; in the test with SK-MEL-28 melanoma it was 70 µM.
Turning to `COc1ccc(/C=N\NC(=O)CN2CCN(c3cc4c(cc3F)c(=O)c(C(=O)N/N=C/c3ccc(OC)c(OC)c3)cn4C3CC3)CC2)cc1OC`, the GI50 is 3.56 µM in the test with MOLT-4 leukemia; 2.55 µM with T-47D breast; 1.81 µM in the test with MALME-3M melanoma; 17.9 µM with SF-295 CNS; 2.77 µM in the test on RPMI-8226 leukemia; 1.4 µM in the test with A498 renal. The GI50 in the test on SF-539 CNS was 2.38 µM; in the test with PC-3 prostate it was 2.76 µM; in the test with SNB-19 CNS, 3.11 µM; in the test with SK-MEL-28 melanoma it was 2 µM. The TGI with MOLT-4 leukemia is over 100 µM; in the test on T-47D breast it was 8.78 µM; with MALME-3M melanoma, 3.62 µM; in the test on SF-295 CNS it was 63 µM; in the test with RPMI-8226 leukemia, 8.82 µM; in the test on A498 renal, 23.4 µM. In addition, the TGI in the test on SF-539 CNS turned out to be 6.46 µM; with PC-3 prostate, 9.53 µM; in the test on SNB-19 CNS it was 12.5 µM; in the test on SK-MEL-28 melanoma, 3.86 µM.
For `O=C1c2ccccc2-c2c1c1ccccc1c(=O)n2CCCNCCCn1ccnc1`, the GI50 is 0.0267 µM in the test on MOLT-4 leukemia; 5.78 µM with T-47D breast; 3.33 µM with MALME-3M melanoma; 0.419 µM in the test on SF-295 CNS; 0.195 µM in the test on RPMI-8226 leukemia; 2.05 µM with A498 renal. Further, the GI50 in the test with SF-539 CNS is 0.908 µM; in the test with PC-3 prostate it was 1.58 µM; with SNB-19 CNS it was 1.47 µM; with SK-MEL-28 melanoma, 2.94 µM. For the same compound, the TGI came out at 0.358 µM in the test on MOLT-4 leukemia; 21.1 µM with T-47D breast; 13.4 µM in the test on MALME-3M melanoma; 1.99 µM with SF-295 CNS; 1.02 µM with RPMI-8226 leukemia; 7.83 µM in the test with A498 renal. The TGI turned out to be 2.48 µM in the test on SF-539 CNS, 9.75 µM in the test with PC-3 prostate, 13.1 µM in the test on SNB-19 CNS and 8.92 µM with SK-MEL-28 melanoma.
Regarding `COC(=O)CCc1cc(OC)c2c(c1)C(C(=O)OC)C(c1ccc(OC)c(OC)c1)O2` (configuration not stated), the GI50 with MOLT-4 leukemia was 65.1 µM and 7.2 µM; in the test on MALME-3M melanoma it was > 100 µM and 20 µM; in the test with SF-295 CNS, > 100 µM and 17.1 µM; with RPMI-8226 leukemia, > 100 µM and 22.3 µM; in the test on A498 renal, over 100 µM; in the test on SF-539 CNS, > 100 µM and 11.1 µM. The GI50 in the test on PC-3 prostate is > 100 µM and 28.8 µM; with SNB-19 CNS, > 100 µM and 15.8 µM; in the test on SK-MEL-28 melanoma, 21.9 µM and > 100 µM. For the same compound, the TGI in the test with MOLT-4 leukemia, in the test on T-47D breast, in the test on MALME-3M melanoma, with SF-295 CNS, with RPMI-8226 leukemia and in the test with A498 renal was over 100 µM throughout. For the same compound, the TGI was > 100 µM and 47.3 µM in the test with SF-539 CNS; over 100 µM in the test with PC-3 prostate; over 100 µM in the test with SNB-19 CNS; over 100 µM in the test with SK-MEL-28 melanoma.
As to `NOCC(=O)O`, the GI50 was over 100 µM in the test with MOLT-4 leukemia; over 100 µM with T-47D breast; over 100 µM with MALME-3M melanoma; over 100 µM in the test with SF-295 CNS; 58 µM with RPMI-8226 leukemia; over 100 µM in the test with A498 renal. Further, the GI50 with SF-539 CNS, with PC-3 prostate, in the test with SNB-19 CNS and in the test with SK-MEL-28 melanoma was over 100 µM in each case. The TGI in the test on MOLT-4 leukemia, in the test on T-47D breast, in the test with MALME-3M melanoma, with SF-295 CNS, in the test on RPMI-8226 leukemia and with A498 renal was over 100 µM in each case. In addition, the TGI in the test on SF-539 CNS, with PC-3 prostate, in the test on SNB-19 CNS and in the test with SK-MEL-28 melanoma was over 100 µM throughout.
